In patent US8883504B2, “Cell differentiation suppressing agent, method of culturing cells using the same, culture solution, and cultured cell line” (Asahi Kasei Kabushiki Kaisha, priority 2003, dated 2014):

Columns and labels:
[1] = tested on: mouse embryonic stem cell line D3ES cell; experiment: Alkaline phosphatase staining 1; type: cell-based
Method: For the D3ES cell obtained by the preparation of the mouse ES cell as described in (3) above, 3×10^2 to 1×10^3 cells per well was seeded in […] of the ES cell assay medium in a well of a 96-well cell culture dish (Falcon Corp. made, Cat. No. 3072, USA) coated previously with a 0.1% aqueous gelatin solution. A 10 μl of the differentiation inhibiting agent (A,B,C,D,E,F: A to D were ASINEX Corp. (Russia) made and E to F were purchased from PHARMEKS Corp. (Russia)) of the present invention or ESGRO, which was dissolved in dimethylsulfoxide (DMSO), or water, or the mixture, was added to each well to make 0.4 to 40 μg/mL, and culturing was carried out at 37° C. in 5% CO2 incubator for 7 days. DMSO added to the medium was adjusted to make a final concentration of 0.1% or lower. On the other hand, to a control well was added only DMSO to make the final concentration of 0.1%.
The ES cells were stained by using an alkaline phosphatase kit (SIGMA Diagnostic Corp. made, Cat. No. 86-R). […]

[2] = tested on: STAT3; experiment: STAT3 activation assay 1 (pSTAT3-TA-Luc luciferase reporter); type: cell-based, mouse; details: D3ES cells, agent 0.4 to 40 μg/mL or ESGRO 10 to 10,000 unit/mL, 6 to 24 hours, FIG. 5
Method: For the D3ES cells prepared by the method described in (3) preparation of a mouse ES cell of Example 1, 1×10^5 cells in 500 μL ES medium were seeded in a well of a 24-well cell culture dish (Falcon Corp. made, Cat No. 3047, USA) coated previously with a 0.1% aqueous gelatin solution, followed by culturing at 37° C. in 5% CO2 incubator for 12 hours to 24 hours. Next, by using LipofectAMINE 2000 (Invitrogen Corp. made, USA) by a protocol attached to the product, 0.9 μg per 1 well of pSTAT3-TA-Luc or pTA-Luc vector (Clontech Corp. made, USA) was transfected into the ES cells. In addition, 0.1 μg of an internal control, pRL-TK vector (Promega Corp. made, USA) was transfected at the same time for each well. Following culturing at 37° C. in 5% CO2 incubator for 4 hours, the medium was sucked, and the cells were washed twice with PBS and, then, a 500 μL-ES assay medium was added to each well. […] Next, by using PicaGene Dual SeaPansy (Toyo Ink made, Japan) by the attached protocol, a luminescence signal generated by a luciferase reporter enzyme of each cell was measured.

[3] = tested on: STAT3; experiment: STAT3 activation assay 2 (pSTAT3-TA-Luc luciferase reporter); type: cell-based, mouse; details: D3ES cells, agent 0.4 to 40 μg/mL or ESGRO 10 to 10,000 unit/mL, 6 to 24 hours, FIG. 12
Method: For the D3ES cells prepared by the method described in (3) preparation of the ES cell of Example 1, 1×10^5 cells were seeded on a 24-well cell culture dish (Falcon, Cat. No. 3047, USA) coated previously with a 0.1% aqueous gelatin solution to make the ES cell medium in 500 μL per 1 well followed by culturing at 37° C. in 5% CO2 incubator for 12 hours to 24 hours. Next, by using LipofectAMINE 2000 (Invitrogen Corp. made, USA) by a protocol attached to the product, 0.9 μg/well of pSTAT3-TA-Luc or pTA-Luc vector (Clontech Corp. made, USA) was transfected into the ES cells. On the other hand, 0.1 μg of the internal control, pRL-TK vector (Promega Corp. made, USA) was transfected at the same time for each well. Following culturing at 37° C. in 5% CO2 incubator for 4 hours, the medium was sucked and washed twice with PBS and, then, the 500 μL-ES assay medium was added to each well. […] Next, by using PicaGene Dual SeaPansy (Toyo Ink, Japan) by the attached protocol, the luminescence signal generated by the luciferase reporter enzyme of each cell was measured.

## CC(=O)c1ccc(/N=N/C(C(N)=O)=C2/NC(C)(C)Cc3ccccc32)cc1 [compound B, 2-(4-acetyl-phenylazo)-2-(3,3-dimethyl-3,4-dihydro-2H-isoquinoline-1-ylidene)-acetamide]
[1]; compound 4 μg/mL, ESGRO 1000 units/mL
  undifferentiated colony formation compared with ES cells cultured in the presence of ESGRO (positive control): form an undifferentiated colony equal to that of the ES cells cultured in the presence of ESGRO
[1]; compound B 4 μg/mL, FIG. 4
  alkaline phosphatase staining in comparison with ES cells cultured in the absence of ESGRO: stained significantly more densely
[2]
  expression of the luciferase reporter enzyme by pSTAT3-TA-Luc: did not induce the expression of the reporter enzyme
[3]
  expression of the luciferase reporter enzyme by pSTAT3-TA-Luc: did not induce the expression of the reporter enzyme
